Test results as given in US9763445B2, “Safened herbicidal compositions comprising a pyridine carboxylic acid herbicide” (Dow AgroSciences, LLC, priority 2014, dated 2017).

Key:
corn/maize (ZEAMX) = experiment: Postemergence greenhouse trial, % visual injury on corn/maize; type: in vivo, Zea mays; conditions: ZEAMX
Procedure: (§1) Seeds of the desired test plant species were planted in Sun Gro MetroMix® 306 planting mixture, which typically has a pH of 6.0 to 6.8 and an organic matter content of about 30 percent, in plastic pots with a surface area of 103.2 square centimeters (cm^2). When required to ensure good germination and healthy plants, a fungicide treatment and/or other chemical or physical treatment was applied. The plants were grown for 7-36 days (d) in a greenhouse with an approximate 14-hour (h) photoperiod which was maintained at about 23° C. during the day and 22° C. during the night. Nutrients and water were added on a regular basis and supplemental lighting was provided with overhead metal halide 1000-Watt lamps as necessary. The plants were employed for testing when they reached the second or third true leaf stage.
(§2) Weighed amounts of technical material were dissolved in a volume of 97:3 volume per volume (v/v) acetone/dimethyl sulfoxide (DMSO) to stock solutions. […] The concentrated stock solutions were diluted with an aqueous mixture of 1.5% v/v of Agri-dex crop oil concentrate to provide the appropriate application rates. Compound requirements are based upon a 12 milliliter (mL) application volume at a rate of 187 liters per hectare (L/ha). Stocks solutions of the safeners were prepared following the same procedure. Spray solutions of the safeners and experimental compound mixtures were prepared by adding the stock solutions to the appropriate amount of dilution solution to form a 12 mL spray solution in two-way combinations. Formulated compounds were applied to the plant material with an overhead Mandel track sprayer equipped with 8002E nozzles calibrated to deliver 187 L/ha over an application area of 0.503 square meters (m^2) at a spray height of 18 inches (43 centimeters (cm)) above average plant canopy. Control plants were sprayed in the same manner with the solvent blank. All herbicide application (component a) rates are in g ae/ha and all safener (component b) rates are in g ai/ha.
(§3) The treated plants and control plants were placed in a greenhouse as described above and watered by sub-irrigation to prevent wash-off of the test compounds. After 20-22 d, the condition of the test plants as compared with that of the control plants was determined visually and scored on a scale of 0 to 100 percent where 0 corresponds to no injury and 100 corresponds to complete kill. The condition of the test plants was compared with that of the control plants as determined visually and scored on a scale of 0 to 100 percent, where 0 corresponds to no injury and 100 corresponds to complete kill. Colby's equation was used to determine the herbicidal effects expected from the mixtures.
(§4) The safener cloquintocet-mexyl was combined with compound 1, compound 2, compound 4, compound 5, and compound 6, and applied to corn/maize (ZEAMX) and spring wheat (TRZAS) and the phytotoxicity of the herbicidal compositions was measured. In addition, the efficacy of the herbicidal composition on velvetleaf (ABUTH, Abutilon theophrasti), pigweed (AMARE, Amaranthus retroflexus), winter rape (BRSNW, Brassica napus), lambsquarters (CHEAL, Chenopodium album), thistle (CIRAR, Cirsium arvense), nutsedge (CYPES, Cyperus esculentus), poinsettia (EPHHL, Euphorbia heterophylla), wild buckwheat (POLCO, Polygonum convolvulus), giant foxtail (SETFA, Setaria faberi), and chickweed (STEME, Stellaria media) was evaluated. […]

winter wheat (TRZAW) = experiment: Postemergence greenhouse trial, % visual injury on winter wheat; type: in vivo, Triticum aestivum; conditions: TRZAW
Procedure: as §1, §2, §3
The safener cloquintocet-mexyl was combined with compound 1, compound 2, compound 3, compound 7, compound 8, compound 9, compound 10, compound 11, compound 12, compound 13, compound 14, compound 15, compound 16, compound 17, compound 18, compound 19, and compound 20, and applied to spring wheat (TRZAS), winter wheat (TRZAW), and spring barley (HORVS) and the phytotoxicity of the herbicidal compositions was measured. […]

pigweed (AMARE) = experiment: Postemergence greenhouse trial, % visual injury on pigweed; type: in vivo, Amaranthus retroflexus; conditions: AMARE
Procedure: as §1, §2, §3, §4
(§5) The safener cloquintocet-acid and a number of agriculturally acceptable esters and salts (-mexyl, -dimethylammonium salt and -triethylammonium salt) were combined in varying ratios with compound 1 and applied to spring wheat (TRZAS), winter wheat (TRZAW), and spring barley (HORVS), and the phytotoxicity of the herbicidal compositions was measured. […]

nutsedge (CYPES) = experiment: Postemergence greenhouse trial, % visual injury on nutsedge; type: in vivo, Cyperus esculentus; conditions: CYPES
Procedure: as §1, §2, §3, §4, §5

common sunflower (HELAN) = experiment: Postemergence greenhouse trial, % visual injury on common sunflower; type: in vivo, Helianthus annuus
Procedure: as §1, §2, §3
(§6) The safener cloquintocet-acid and a number of agriculturally acceptable esters and salts (-mexyl, -dimethylammonium salt and -triethylammonium salt) were combined in varying ratios with compound 1 and applied to spring wheat (TRZAS), winter wheat (TRZAW), and spring barley (HORVS), and the phytotoxicity of the herbicidal compositions was measured. In addition, the efficacy of the herbicidal composition on pigweed (AMARE, Amaranthus retroflexus), nutsedge (CYPES, Cyperus esculentus), common sunflower (HELAN, Helianthus annuus), and common sorghum (SORVU, Sorghum vulgare).

common sorghum (SORVU) = experiment: Postemergence greenhouse trial, % visual injury on common sorghum; type: in vivo, Sorghum vulgare; conditions: SORVU
Procedure: as §1, §2
as §3, with “mixtures. […]” for “mixtures.”
as §6

winter rape (BRSNW) = experiment: Postemergence greenhouse trial, % visual injury on winter rape; type: in vivo, Brassica napus; conditions: Brassica napus, post-emergence, BRSNW, applied alone, read-out: % visual injury, Ob
Procedure: as §1, §2, §3, §4

kochia (KCHSC) = experiment: Postemergence greenhouse trial, % visual injury on kochia; type: in vivo, Kochia scoparia; conditions: Bassia scoparia, post-emergence, KCHSC, applied alone, read-out: % visual injury, Ob
Procedure: as §1, §2
as §3, with “mixtures. […]” for “mixtures.”

common poppy (PAPRH) = experiment: Postemergence greenhouse trial, % visual injury on common poppy; type: in vivo, Papaver rhoeas; conditions: Papaver rhoeas, post-emergence, PAPRH, applied alone, read-out: % visual injury, Ob
Procedure: as §1, §2
as §3, with “mixtures. […]” for “mixtures.”

wild mustard (SINAR) = experiment: Postemergence greenhouse trial, % visual injury on wild mustard; type: in vivo, Sinapis arvensis; conditions: Brassica, post-emergence, SINAR, applied alone, read-out: % visual injury, Ob
Procedure: as §1, §2
as §3, with “mixtures. […]” for “mixtures.”

wild pansy (VIOTR) = experiment: Postemergence greenhouse trial, % visual injury on wild pansy; type: in vivo, Viola tricolor; conditions: VIOTR, applied alone
Procedure: as §1, §2
as §3, with “mixtures. […]” for “mixtures.”

Compound: CCN(CC)CC.O=C(O)COc1ccc(Cl)c2cccnc12 [CQC-TEA]
- % visual injury, observed (Ob) (corn/maize (ZEAMX); safener alone 2.5 g/ha): 0%
- % visual injury, observed (Ob) (corn/maize (ZEAMX); safener alone 5 g/ha): 0%
- % visual injury, observed (Ob) (corn/maize (ZEAMX); safener alone 10 g/ha): 0%
- % visual injury, observed (Ob) (corn/maize (ZEAMX); safener alone 20 g/ha): 0%
- % visual injury, observed (Ob) (winter wheat (TRZAW); safener alone 2.5 g/ha): 0%
- % visual injury, observed (Ob) (winter wheat (TRZAW); safener alone 5 g/ha): 0%
- % visual injury, observed (Ob) (winter wheat (TRZAW); safener alone 10 g/ha): 0%
- % visual injury, observed (Ob) (winter wheat (TRZAW); safener alone 20 g/ha): 0%
- % visual injury, observed (Ob) (pigweed (AMARE); safener alone 2.5 g/ha): 0%
- % visual injury, observed (Ob) (pigweed (AMARE); safener alone 5 g/ha): 0%
- % visual injury, observed (Ob) (pigweed (AMARE); safener alone 10 g/ha): 0%
- % visual injury, observed (Ob) (pigweed (AMARE); safener alone 20 g/ha): 0%
- % visual injury, observed (Ob) (nutsedge (CYPES); safener alone 2.5 g/ha): 0%
- % visual injury, observed (Ob) (nutsedge (CYPES); safener alone 5 g/ha): 0%
- % visual injury, observed (Ob) (nutsedge (CYPES); safener alone 10 g/ha): 0%
- % visual injury, observed (Ob) (nutsedge (CYPES); safener alone 20 g/ha): 0%
- % visual injury, observed (Ob) (common sunflower (HELAN); safener alone 2.5 g/ha): 0%
- % visual injury, observed (Ob) (common sunflower (HELAN); safener alone 5 g/ha): 0%
- % visual injury, observed (Ob) (common sunflower (HELAN); safener alone 10 g/ha): 0%
- % visual injury, observed (Ob) (common sunflower (HELAN); safener alone 20 g/ha): 0%
- % visual injury, observed (Ob) (common sorghum (SORVU); safener alone 2.5 g/ha): 0%
- % visual injury, observed (Ob) (common sorghum (SORVU); safener alone 5 g/ha): 0%
- % visual injury, observed (Ob) (common sorghum (SORVU); safener alone 10 g/ha): 0%
- % visual injury, observed (Ob) (common sorghum (SORVU); safener alone 20 g/ha): 0%

Compound: Nc1c(F)c(-c2ccc3cc[nH]c3c2)nc(C(=O)O)c1Cl [compound 16]
- pest or weed control at 4.375 g/ha (pigweed (AMARE); Amaranthus retroflexus, post-emergence, 4.375 g/ha, applied alone, read-out: % visual injury, Ob): 70%
- pest or weed control at 8.75 g/ha (pigweed (AMARE); Amaranthus retroflexus, post-emergence, 8.75 g/ha, applied alone, read-out: % visual injury, Ob): 80%
- pest or weed control at 17.5 g/ha (pigweed (AMARE); Amaranthus retroflexus, post-emergence, 17.5 g/ha, applied alone, read-out: % visual injury, Ob): 85%
- pest or weed control at 35 g/ha (pigweed (AMARE); Amaranthus retroflexus, post-emergence, 35 g/ha, applied alone, read-out: % visual injury, Ob): 100%
- pest or weed control at 70 g/ha (pigweed (AMARE); Amaranthus retroflexus, post-emergence, 70 g/ha, applied alone, read-out: % visual injury, Ob): 100%
- plant injury at 4.375 g/ha (winter rape (BRSNW); 4.375 g/ha): 30%
- plant injury at 8.75 g/ha (winter rape (BRSNW); 8.75 g/ha): 40%
- plant injury at 17.5 g/ha (winter rape (BRSNW); 17.5 g/ha): 65%
- plant injury at 35 g/ha (winter rape (BRSNW); 35 g/ha): 70%
- plant injury at 70 g/ha (winter rape (BRSNW); 70 g/ha): 90%
- pest or weed control at 4.375 g/ha (kochia (KCHSC); 4.375 g/ha): 60%
- pest or weed control at 8.75 g/ha (kochia (KCHSC); 8.75 g/ha): 70%
- pest or weed control at 17.5 g/ha (kochia (KCHSC); 17.5 g/ha): 85%
- pest or weed control at 35 g/ha (kochia (KCHSC); 35 g/ha): 90%
- pest or weed control at 70 g/ha (kochia (KCHSC); 70 g/ha): 90%
- pest or weed control at 4.375 g/ha (common poppy (PAPRH); 4.375 g/ha): 70%
- pest or weed control at 8.75 g/ha (common poppy (PAPRH); 8.75 g/ha): 70%
- pest or weed control at 17.5 g/ha (common poppy (PAPRH); 17.5 g/ha): 100%
- pest or weed control at 35 g/ha (common poppy (PAPRH); 35 g/ha): 100%
- pest or weed control at 70 g/ha (common poppy (PAPRH); 70 g/ha): 100%
- pest or weed control at 4.375 g/ha (wild mustard (SINAR); 4.375 g/ha): 90%
- pest or weed control at 8.75 g/ha (wild mustard (SINAR); 8.75 g/ha): 93%
- pest or weed control at 17.5 g/ha (wild mustard (SINAR); 17.5 g/ha): 95%
- pest or weed control at 35 g/ha (wild mustard (SINAR); 35 g/ha): 100%
- pest or weed control at 70 g/ha (wild mustard (SINAR); 70 g/ha): 100%
- % visual injury, Ob (wild pansy (VIOTR); 4.375 g/ha): 10%
- % visual injury, Ob (wild pansy (VIOTR); 8.75 g/ha): 10%
- % visual injury, Ob (wild pansy (VIOTR); 17.5 g/ha): 20%
- % visual injury, Ob (wild pansy (VIOTR); 35 g/ha): 30%
- % visual injury, Ob (wild pansy (VIOTR); 70 g/ha): 40%
